Test results from patent US6025340A, “Surface expression of enzyme in gene directed prodrug therapy” (priority 1994, dated 2000).

What was measured:
[1] = test system: MDA MB361 transfected cells (CPG2-expressing line and control line); assay: Sulphorhodamine B cytotoxicity assay; format: cell-based; conditions: 4 days incubation
Protocol: Prodrug 2 was also assayed (FIG. 12) in the MDA MB361 transfected cells obtained in Preparative Example 3 using a sulphorhodamine B cytotoxicity assay which was conducted by plating 5000 cells per well in a 96-well microtitre dish. The cells were plated in 160 μl of DMEM medium. After incubation over night the drug or appropriate controls made up in DMEM containing 5% serum was added to the wells in a 40 μl volume. The cells were incubated for 4 days under standard conditions. Following this the medium was removed and the cells treated with ice-cold 10% TCA (trichloroacetic acid) on ice for about 30 minutes. The TCA was removed and the cells rinsed for adding 18 μl of 0.4% sulphorhodamine B (SRB) which was left to stain the cells for 10 minutes. Following staining the cells were rinsed in TCA and air dried before addition of 18 μl of 10 mM TRIS and cell viability was then read. […] (see FIG. 12)

[2] = test system: NIH3T3 cells transfected with MLVβplink; assay: Cytotoxicity assay, [3H]-thymidine incorporation, transiently transfected control cells; format: cell-based, murine; conditions: CMDA 0.5 mM for 3 hours or 24 hours
Protocol: (§1) The ability of CPG2(surface) to kill NIH3T3 cells in the presence of the CMDA pro-drug was examined. Three sets of NIH3T3 cells were prepared, each of which contained one dish of cells transfected with MLVβplink, one dish of cells transfected with MLVCPG2(surface) or one dish of cells transfected with MLVCPG2(surface)LNLL. The cells were incubated for 42 hours following the transfection and then set 1 was incubated in the presence of prodrug vehicle (5 mM Hepes, 0.5% v/v DMSO, pH7.0; final concentrations) for 24 hours. Set 2 was incubated in the presence of the CMDA prodrug (0.5 mM final concentration) for 3 hours. Set 3 was incubated in CMDA (0.5 mM) for 24 hours. Following prodrug treatment, the cells were washed three times with 5 ml 10% FCS/ DMEM and sets 1 and 3 incubted in fresh medium for a further 24 hours, set 2 for 45 hours. The cells were then passaged into fresh culture dishes, seeded at 1×10^5 cells/ 35 mm dish in 2 ml FCS/ DMEM. After a further 72 hour incubation cell growth was assessed by [3H]-thymidine incorporation.
For thymidine incorporaion, 1 μCi of [methyl-^3 H]thymidine was added to each well (2 ml medium) and incubated for 5 hours at 37° C. […] The DNA was extracted with 1 ml 0.1 M NaOH, 1% SDS at room temperature for 5 minutes, added to 4 ml scintilation fluid and the incorporated thymidine determined by scintillation counting.

[3] = test system: NIH3T3 cells transfected with MLVCPG2(surface)LNLL; assay: Cytotoxicity assay, [3H]-thymidine incorporation, transiently transfected cells; format: cell-based, murine; conditions: CMDA 0.5 mM
Protocol: as §1
(§2) For thymidine incorporaion, 1 μCi of [methyl-^3 H]thymidine was added to each well (2 ml medium) and incubated for 5 hours at 37° C. The cells were washed twice with PBSA (4° C.) and fixed with 5% w/v trichloroacetic acid (TCA) in water at 4° C. for 20 minutes. The TCA was removed and the cells washed twice with 2 ml methanol and air dried. The DNA was extracted with 1 ml 0.1 M NaOH, 1% SDS at room temperature for 5 minutes, added to 4 ml scintilation fluid and the incorporated thymidine determined by scintillation counting.

[4] = test system: NIH3T3 cells transfected with MLVCPG2(surface); assay: as above; format: cell-based, murine; conditions: CMDA 0.5 mM
Protocol: as §1, §2

[5] = test system: NIH3T3 cell line #3 constitutively expressing β-galactosidase; assay: Cell survival by [3H]-thymidine incorporation, stable control line; format: cell-based, murine; conditions: increasing concentrations, 60 minutes at 37° C.
Protocol: (§3) Stable cell lines were prepared with NIH3T3 cells to constitutively express CPG2 (surface) LNLL, or as a control the lacZ gene product (β-galactosidase). In order to do this, NIH3T3 cells were transfected with pMCEF-CPG2(surface)LNLL or pMCEFlacZ as described in Comparative Example 1 above, and two days after transfection, the cells were plated at low density into medium containing G418 at 1 mg/ml. Colonies coming from single cells could be observed about two weeks later and these were cloned and grown up individually. The expression of CPG2(surface) was determined by immunoprotein blotting of […] of cell extract (extracted as described in the Comparative Example above) from each of the G418 resistant colonies with the antiserum from the Comparative Example 1 above. The cell line #16 which expresses high levels of CPG2(surface)LNLL (FIG. 6A) and cell line #3, which expresses the β-galactosidase (see below) were selected for further investigation. […] 250 μl of 1 MNa2 CO3 was added to the sample and the OD420 was measured.
(§4) Cell lines #3 and #16 obtained in Preparative Example 2 were tested for cytotoxicity with the CMDA pro-drug. […] After a further 6 hour incubation, 10% of the cells were re-plated into 24 well dishes, incubated for a further 5 days and cell survival was determined by [^3 H]-thymidine incorporation.

[6] = test system: NIH3T3 cell line #16 constitutively expressing CPG2(surface)LNLL; assay: Cell survival by [3H]-thymidine incorporation, stable line; format: cell-based, murine; conditions: Mus musculus, 60 minutes treatment at 37° C., survival after 5 days
Protocol: as §3, §4

[7] = test system: mixture of NIH3T3 cell lines #3 and #16; assay: Bystander effect, mixed cell lines, [3H]-thymidine incorporation; format: cell-based, murine; conditions: 40% of the cells expressing CPG2(surface)LNLL; 250 μM or 1000 μM CMDA for 60 minutes
Protocol: Cell lines #3 and #16 obtained in Preparative Example 2 were tested for cytotoxicity with the CMDA pro-drug. 1×10^5 cells were plated into each well of 24 well dishes, incubated for 40 hours and then treated with increasing concentrations of CMDA at 37° C. for 60 minutes. After a further 6 hour incubation, 10% of the cells were re-plated into 24 well dishes, incubated for a further 5 days and cell survival was determined by [^3 H]-thymidine incorporation.
The bystander effect was determined by mixing cell lines #3 and #16 obtained in Preparative Example 2 at a variety of concentrations as indicated and a total of 1×10^5 cells were plated per well in 24 well plates. The cells were incubated and treated as described in Example 3, except that they were treated with either 250 μM or 1000 μM CMDA for 60 minutes as indicated. The cell survival was determined as in Example 3.

[8] = test system: MDA MB 361 cell line M38 constitutively expressing CPG2(surface)QQQ; assay: Cell viability by [3H]-thymidine incorporation, stable line; format: cell-based; conditions: for sensitivity to prodrug compared with line M2: 60 minutes at 37° C., viability after 5 days
Protocol: (§5) CPG2(surface) QQQ was cloned into pMCEF-Plink as an Nco1/Xba fragment; this plasmid is called pMCEFCPG2(surface)QQQ. MDA361B cells were transfected with either pMCEFCPG2(surface)QQQ, or with pMCEFlacZ according to the protocol described in the Comparative Example and were treated as for the NIH3T3 cells to generate G418 colonies. The G418 resistant colonies were tested for CPG2(surface)QQQ expression by immunoprotein blot analysis, as described for the NIH3T3 cells. From these analyses, two cell lines, M2 which expresses β-galactosidase and M38, which expresses CPG2(surface)QQQ were selected for further testing. […] The expression of β-galactosidase by line M2 was confirmed by enzymatic assay (FIG. 10B, lane 1 contains M2 extract, lane 2 a control extract).
These cell lines were tested for sensitivity to the CMDA prodrug and prodrug 2. 1×10^5 cells were plated into each well of a 24 well plate. The cells were incubated for 48 hours at 37° C. They were then incubated in increasing concentrations of either CMDA or prodrug 2 for 60 minutes at 37° C., washed twice, returned to medium and incubated for a further 5 days. The viability of the cells was then determined by using [^3 H]-thymidine incorporation.
(§6) In order to examine the bystander effect with the MDA MB 361 cells constitutively expressing CPG2(surface)QQQ, the M38 cell line, the M2 cell line, or a 1:10 mixture of M38: M2 cells were plated (1×10^4 cells) into the wells of a 24 well plate, and incubated for 48 hours. The cells were then treated with varying concentrations of prodrug 2 for 60 min, washed twice with fresh medium and incubated in fresh medium for 5 days. The survival of the cells was then determined by [^3 H-methyl] thymidine incorporation.

[9] = test system: MDA MB 361 cell line M2 constitutively expressing β-galactosidase; assay: Cell viability by [3H]-thymidine incorporation, stable control line; format: cell-based
Protocol: as §5
These cell lines were tested for sensitivity to the CMDA prodrug and prodrug 2. 1×10^5 cells were plated into each well of a 24 well plate. The cells were incubated for 48 hours at 37° C. […] The viability of the cells was then determined by using [^3 H]-thymidine incorporation.
as §6, with “The cells were then treated with varying concentrations of prodrug 2 for 60 min, washed twice with fresh medium and incubated in fresh medium for 5 days.” left out

[10] = test system: 1:10 mixture of M38:M2 MDA MB 361 cells; assay: Bystander effect, mixed cell lines, [3H]-thymidine incorporation; format: cell-based; conditions: Example 7
Protocol: as §6

| Compound | difference in susceptibility, CPG2-expressing line versus control line [1] | effect of prodrug treatment on growth rate [2] | effect of prodrug treatment on cell growth ([3]; 24 hour prodrug treatment) | inhibition at 500 µM ([3]; Mus musculus, NIH3T3, 3 hour prodrug treatment, read-out: reduction in cell growth) [%] | effect of prodrug treatment on cell growth ([4]; 3 hour prodrug treatment) | inhibition at 500 µM ([4]; Mus musculus, NIH3T3, 24 hour prodrug treatment, read-out: inhibition of cell growth) [%] | sensitivity to prodrug (cell survival) [5] | IC50 [6] [µM] | cells killed [7] | sensitivity to prodrug compared with line M2 [8] | sensitivity to prodrug ([9]; 60 minutes at 37° C., up to highest concentration tested) | fold more sensitive, M38 cells versus M2 cells ([8]; Example 5, 1×10^5 cells per well, 60 minutes treatment) [fold] | IC50 ([9]; Example 7, 60 min treatment, survival after 5 days) [µM] | fold change of IC50 in 1:10 mixture versus M2 [10] [fold] |
| --- | --- | --- | --- | --- | --- | --- | --- | --- | --- | --- | --- | --- | --- | --- |
| [NH2][Pt]([NH2])([Cl])[Cl] [CDDP, Cisplatin] | not found to be any difference |  |  |  |  |  |  |  |  |  |  |  |  |  |
| CS(=O)(=O)OCCN(CCCl)c1ccc(C(=O)N[C@@H](CCC(=O)O)C(=O)O)cc1 [CMDA, N-4-[(2-chloroethyl)(2-mesyloxyethyl)amino]benzoyl-L-glutamic acid] |  | minimal effect | complete cell death | -20 | unaffected | -87 | not sensitive to even the highest concentration | 125 | greater than 80% | more sensitive | did not show any sensitivity |  |  |  |
| O=C(O)CC[C@H](NC(=O)Oc1ccc(N(CCI)CCI)cc1)C(=O)O [prodrug 2, N-(4-[bis(2-iodoethyl)amino]phenoxycarbonyl)-L-glutamic acid] |  |  |  |  |  |  |  |  |  | more sensitive |  | ~200 | ~200 | -10 |
